The values below come from patent US9220758B2, “Calcitonin products and therapies for treating inflammatory or degenerative diseases” (UGP Therapeutics, Inc., priority 2010, dated 2015).

Holding throughout (type): cell-based
The subject of experiment [1] is bovine articular cartilage explants. The experiment in a line: PGE2 release from cytokine-stimulated bovine cartilage explants (ELISA). As to conditions: for highest ineffective concentration, PGE2 release: TNFa/IL-1a/OSM 10 ng/ml each, 3 week culture; for normalized PGE2 release: stimulated control = 100%. How it is done:
(§1) Full thickness cartilage was obtained from the metacarpophalangeal joints of approximately 6 months old calves (from a local slaughterhouse). Cartilage punches (4 mm) were taken from the cartilage and placed in culture dishes with culture medium (DMEM+FCS, penicillin, streptomycin and ascorbic acid). Cartilage explants were weighed and explants between about 5 and about 15 mg were divided into a 96-well culture plate with 1 explant per well and 200 μL culture medium. Cartilage degradation was induced by addition of TNFα, IL-1α, and OSM at 10 ng/mL each to the culture medium. Test agents were then added at different concentrations. During three weeks of culture, the culture medium and the test compounds were refreshed once weekly. In addition fresh calcitonin was added twice weekly to the cartilage explants. Culture medium and cartilage explants were stored at −20° C. until analysis. Each culture condition was cultured in four-fold and the entire experiment was performed on cartilage from three different paws. The different culture conditions are listed below in Table 1.
(§2) Outcome parameters included (i) CTX-II in the culture medium as a measure of collagen degradation, (ii) GAG in the culture medium and cartilage explant as a measure of proteoglycan degradation, (iii) prostaglandin E2 (PGE2) measured by ELISA in the culture medium as a measure of inflammation, and (iv) general MMP activity in the culture medium. Not all outcome parameters were determined for each of the culture conditions.
The prostaglandin E2 release was measured as PGE2 release per mg cartilage. PGE2 was determined in the pooled medium using a PGE2 ELISA from R&D Systems. This value was normalized against the control condition of each donor to correct for donor variation. The basal release of unstimulated cartilage is 11% (p<0.0 1) when the stimulated (IL-1a, TNFα and OSM) control is set to 100%.
as §1, with “the culture medium to induce cartilage degradation. Test agents” for “the culture medium. Test agents”, “in Table 3.” for “in Table 1.”

The test system is the same in experiment [2]. Description: Collagen (CTX-II) release from cytokine-stimulated bovine cartilage explants (CTX-II ELISA). The settings on record: for highest ineffective concentration, Collagen Release: TNFa/IL-1a/OSM 10 ng/ml each, 3 week culture; for effect on collagen release (in words): Example 1, concentrations of Table 1; for CTX-II release: stimulated control 135. As to the method: as §1, §2
Collagen release was measured as CTX-II release per mg cartilage. Collagen was measured in the pooled medium using the CTXII ELISA assay (Pre-clinical Cartilaps®, Nordic Bioscience).
as §1, with “the culture medium to induce cartilage degradation. Test agents” for “the culture medium. Test agents”, “in Table 3.” for “in Table 1.”

For experiment [3] the test system is unchanged. Description: Proteoglycan (GAG) release from cytokine-stimulated bovine cartilage explants (Blyscan assay). As to conditions: for highest ineffective concentration, Proteoglycan release: TNFa/IL-1a/OSM 10 ng/ml each, 3 week culture; for effect on proteoglycan release (in words): Example 1, concentrations of Table 1; for normalized GAG (proteoglycan) release: stimulated control = 100%. As to the method: as §1, §2
The proteoglycan release is measured as GAG release per mg cartilage. Proteoglycan (GAG) content was determined in the pooled medium and explants using the Blyscan® colorimetric assay (Biocolor, Belfast, UK). This value is normalized against the control condition of each donor to correct for donor variation. The basal release of unstimulated cartilage is 36% (p<0.05) when the stimulated (IL-1a, TNFα and OSM) control is set to 100%.
as §1, with “the culture medium to induce cartilage degradation. Test agents” for “the culture medium. Test agents”, “in Table 3.” for “in Table 1.”

Experiment [4] shares this test system. Description: General MMP activity in culture medium of cytokine-stimulated bovine cartilage explants (fluorogenic substrate). As to conditions: stimulated control 23. As to the method:
as §2
The MMP activity was measured as MMP activity per mg cartilage.
as §1, with “the culture medium to induce cartilage degradation. Test agents” for “the culture medium. Test agents”, “in Table 3.” for “in Table 1.”

Turning to `Cc1ccc(-c2cc(C(F)(F)F)nn2-c2ccc(S(N)(=O)=O)cc2)cc1` [Celebrex ® (celecoxib), celecoxib], the “highest ineffective concentration, PGE2 release” value in experiment [1] was below 0.01 µM. Besides, the “highest ineffective concentration, Collagen Release” value in experiment [2] is above 10 µM. The “highest ineffective concentration, Proteoglycan release” value in experiment [3] fell in the range of 0.1 to 1 µM.

Regarding `CNC(=O)[C@H](Cc1c[nH]c2ccccc12)NC(=O)[C@@H](CC(=O)NO)CC(C)C` [Galardin], the “highest ineffective concentration, PGE2 release” value in experiment [1] was above 10 µM. For the same compound, in experiment [2], the “effect on collagen release (in words)” value is listed as “inhibited” and the “highest ineffective concentration, Collagen Release” value was below 0.1 µM. For the same compound, in experiment [3], the “effect on proteoglycan release (in words)” value is listed as “slightly inhibited” and the “highest ineffective concentration, Proteoglycan release” value lay within 1 to 10 µM. The “normalized GAG (proteoglycan) release” value in experiment [3] (compound alone at 10 μM) is listed as 72%.

On to Calcitonin, for which, in experiment [1], the “highest ineffective concentration, PGE2 release” value is above 0.01 µM. The “normalized PGE2 release” value in experiment [1] (compound alone at 10 nM) is given as 117%. In addition, the MMP activity in experiment [4] (compound alone at 10 nM) is recorded as 15 RFU/sec per mg cartilage. Also, the “highest ineffective concentration, Collagen Release” value in experiment [2] fell in the range of 0.0003 to 0.001 µM. Moreover, in experiment [2] (compound alone at 0.5 nM), the CTX-II release stood at 133 ng/mg cartilage. In addition, in experiment [3], the “highest ineffective concentration, Proteoglycan release” value was above 0.01 µM. In experiment [3] (compound alone at 10 nM), the “normalized GAG (proteoglycan) release” value is 87%.

As to `C[C@H]1c2cccc(O)c2C(=O)C2=C(O)[C@]3(O)C(=O)C(C(N)=O)=C(O)[C@@H](N(C)C)[C@@H]3[C@@H](O)[C@@H]21` [Doxycycline], in experiment [1], the “highest ineffective concentration, PGE2 release” value lay in the range of 1 to 10 µM. Further, in experiment [1] (compound alone at 10 μM), the “normalized PGE2 release” value was found to be 111%. In experiment [4] (compound alone at 10 μM), this compound showed an MMP activity of 14 RFU/sec per mg cartilage. Further, in experiment [2], the “highest ineffective concentration, Collagen Release” value is 10 to 100 µM. This compound had a CTX-II release in experiment [2] (compound alone at 10 μM) of 125 ng/mg cartilage. In addition, the “highest ineffective concentration, Proteoglycan release” value in experiment [3] is above 100 µM. Besides, the “normalized GAG (proteoglycan) release” value in experiment [3] (compound alone at 100 μM) worked out at 80%.

`CNC(=O)[C@H](Cc1ccccc1)NC(=O)[C@H](CC(C)C)[C@H](CSc1cccs1)C(=O)NO` [BB-94]: the MMP activity in experiment [4] (compound alone at 10 nM) is recorded as 13 RFU/sec per mg cartilage; in experiment [4] (compound alone at 100 nM) it was 4 RFU/sec per mg cartilage. Further, the CTX-II release in experiment [2] (compound alone at 10 nM) is listed as 137 ng/mg cartilage; in experiment [2] (compound alone at 100 nM) it was 27 ng/mg cartilage. Besides, the “normalized GAG (proteoglycan) release” value in experiment [3] (compound alone at 10 nM) is 83%; in experiment [3] (compound alone at 100 nM) it was 80%.

Consider anakinra [Kineret ® (anakinra)], for which the “effect on PGE2 release (in words)” value in experiment [1] (Example 1, concentrations of Table 1) is recorded as “inhibited all outcome parameters”. Also, the “highest ineffective concentration, PGE2 release” value in experiment [1] is below 0.1 µg/mL. For the same compound, the “effect on collagen release (in words)” value in experiment [2] is recorded as “inhibited all outcome parameters”. Besides, in experiment [3], the “effect on proteoglycan release (in words)” value is given as “inhibited all outcome parameters” and the “highest ineffective concentration, Proteoglycan release” value is below 0.1 µg/mL.

As to `C[C@@H]1C[C@H]2[C@@H]3CCC4=CC(=O)C=C[C@]4(C)[C@@]3(F)[C@@H](O)C[C@]2(C)[C@@]1(O)C(=O)CO` [Dexamethasone], in experiment [1], the “highest ineffective concentration, PGE2 release” value was below 0.01 µM. Besides, in experiment [2], the “highest ineffective concentration, Collagen Release” value was below 0.01 µM. Also, the “highest ineffective concentration, Proteoglycan release” value in experiment [3] is below 0.01 µM.
